Test system: mice
Assay: 2-phenyl-1,4-benzoquinone-induced writhing test in mice (Phenylquinone Writhing, PQW), analgesic activity
Format: in vivo
From the text: The compounds of Formula I of the present invention are useful as analgesic agents due to their ability to alleviate pain in mammals. […] Exptl. Biol. Med., 95, 729 (1957)].

Row | SMILES | Analgesic PQW, % Inhibition of Writhing at 20 mg/kg., s.c. [%] | Analgesic PQW, % Inhibition of Writhing (reference compound, at 3.9 mg/kg, s.c.) (3.9 mg/kg) [%]
1 | Cc1nnc2n1-c1ccccc1-c1c(Cl)c3ccccc3n1C2 [10-Chloro-1-methyl-4H-indolo[1,2-d][1,2,4]triazolo[4,3-a][1,4]benzodiazepin] | 51 | 
2 | Cc1nnc2n1-c1ccc(Cl)cc1-c1c(Cl)c3ccccc3n1C2 [10,12-Dichloro-1-methyl-4H-indolo[1,2-d][1,2,4]triazolo[4,3-a][1,4]benzodiazepine] | 32 | 
3 | CCC(=O)O[C@](Cc1ccccc1)(c1ccccc1)[C@H](C)CN(C)C [Propoxyphene, reference compound] |  | 50
4 | Cc1nnc2n1-c1ccccc1-c1cc3ccccc3n1C2 [1-Methyl-4H-indolo[1,2-d][1,2,4]triazolo[4,3-a][1,4]benzodiazepine] | 37 | 
5 | Cc1nnc2n1-c1ccc(Cl)cc1-c1cc3ccccc3n1C2 [12-Chloro-1-methyl-4H-indolo[1,2-d][1,2,4]triazolo[4,3-a][1,4]benzodiazepin] | 46 | 

From patent US4897392A, “4H-indolo(1,2-d)(1,2,4)triazolo(4,3-A)(1,4)benzodiazepines” (Hoechst-Roussel Pharmaceuticals, Inc., priority 1989, dated 1990)
